Earlier results on one molecule are cited in US20030229111A1, “Naltrexone hydrochloride compositions” (priority 2002, published 2003).

For data set [1] the following is noted: in vivo, po.

On to `O=C1CC[C@@]2(O)[C@H]3Cc4ccc(O)c5c4[C@@]2(CCN3CC2CC2)[C@H]1O5` [naltrexone, Naltrexone], for which the protein binding entry was “approximately 21%”. In data set [1], the “time within which rapidly absorbed” value is at most 1 h.
